Experimental findings from US8188135B2, “Compounds as cannabinoid receptor ligands” (priority 2008, dated 2012) are described below.

For series [1], the target named is T1, human CB2 receptors (Homo sapiens, UniProt P34972).
T1 construct: expressed in transfected cells; host or cells: HEK293
Put plainly: human CB2 radioligand binding assay ([3H]CP 55,940 competition). The settings on record: HEK293 membranes, 0.5 nM [3H]CP 55,940. An outline of the steps:
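Membranes from HEK293 cells stably expressing human CB2 (5 μg protein/well) competed against 0.5 nM [3H]CP 55,940 with five concentrations of test ligand (0.01 nM to 10 μM), pH 7.4 Tris buffer with BSA, 90 min at 30 °C. Filtration and scintillation counting; nonspecific binding with 10 μM unlabeled CP 55,940.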

In series [2] the target is T2, rat CB2 (Rattus norvegicus, UniProt Q9QZN9).
T2 sequence (Q9QZN9 1-360): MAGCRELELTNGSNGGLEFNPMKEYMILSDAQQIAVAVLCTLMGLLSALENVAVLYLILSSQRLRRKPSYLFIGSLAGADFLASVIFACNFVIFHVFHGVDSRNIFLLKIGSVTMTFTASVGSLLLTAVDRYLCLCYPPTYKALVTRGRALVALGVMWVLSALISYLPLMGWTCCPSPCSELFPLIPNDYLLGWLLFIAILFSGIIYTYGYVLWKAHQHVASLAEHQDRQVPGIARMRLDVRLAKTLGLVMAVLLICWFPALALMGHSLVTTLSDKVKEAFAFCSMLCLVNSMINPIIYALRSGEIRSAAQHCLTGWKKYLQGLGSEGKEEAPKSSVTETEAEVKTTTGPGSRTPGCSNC
Put plainly: rat CB2 radioligand binding assay ([3H]CP 55,940 competition). Further details: expressed in transfected cells; host or cells: HEK293. To be noted: HEK293 membranes, 0.5 nM [3H]CP 55,940. In a few lines:
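Membranes (20 μg protein/well) from HEK293 cells stably expressing the receptor were incubated 45 min at 30 °C with 0.5 nM [3H]CP 55,940 and five concentrations of test compound (0.01 nM–10 μM) in Tris/EDTA/MgCl2/BSA buffer, pH 7.4. Bound ligand was measured by GF/C filtration and scintillation counting; 10 μM CP 55,940 defined nonspecific binding.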

Series [3] concerns the target T2, rat CB2. In words: rat CB2 cyclase functional assay (HitHunter cAMP). The format is cell-based. Further details: expressed in transfected cells; host or cells: HEK. To be noted: rat CB2 cyclase (EC50, nM), HEK cells, forskolin 18 μM. How it is done:
(§1) The cyclase functional assays were performed using the HitHunter™ cAMP assay kit from DiscoveRx (Fremont, Calif.) according to vendor's protocol. Briefly, HEK cells expressing CB2 or CB1 receptors (rat or human) were detached using cell dissociation buffer (Invitrogen, Carlsbad, Calif.), dispersed and placed in suspension at 10,000 cells per well in 96 well plates prior to the assay. Cell suspensions were incubated at 37° C. for 20 min with variable concentrations of test ligands and or 10 μM CP 55,940-positive control in the presence of a fixed concentration of forskolin (18 μM for rat CB2 and 37 μM for rat CB1) in Dulbescco's phosphate-buffered saline (Invitrogen, Carlsbad, Calif.) supplemented with bovine serum albumin (0.01% final concentration). The reactions were terminated by the addition of lysis buffer and the luminescence was detected following the procedure according to the manufacturer's instructions. EC50 values were calculated using sigmoidal dose-response curve fitting from Prism (GraphPad).

In series [4] the target is T3, Rat CB1 (Rattus norvegicus, UniProt P20272).
T3 construct: expressed in transfected cells; host or cells: HEK
In words: rat CB1 cyclase functional assay (HitHunter cAMP). The format is cell-based. The settings on record: HEK cells, forskolin 37 μM. How it is done: as §1

The nature of series [5]: pharmacokinetic studies in rats. The settings on record: male, Sprague-Dawley, rat; for half-life: in vivo, 3 micromole/kg; for half-life / clearance: iv; for bioavailability: po. As for the experimental part: Male Sprague-Dawley rats, weighing 250-400 g, were obtained from Charles Rivers Laboratories. Pharmacokinetic studies were conducted in three groups of rats; each group contained three animals. All groups were dosed with a solution formulation. The first group of three rats received an intravenous dose, administered under isoflurane anesthetic. The second group received an intraperitoneal dose and the third group received an oral dose, administered by gavage. Sequential blood samples were obtained from a tail vein of each animal for 8-24 hours after dosing. Plasma was separated by centrifugation and stored frozen until analysis.
Half life […] and plasma clearance values are based on intravenous administration (3 micromole/kg).
Half life (t1/2) and plasma clearance values are based on intravenous administration (3 micromole/kg).

The mark [6] stands for this setting: read-out: Rat CB1 cyclase (EC50).

Several values for one entry are separate records, joined by “and”; a condition that tells them apart may be missing. Equal values may be shown once. Read-outs that look alike come from different tables or passages of the source.

The term Ki denotes a measure of affinity in units of concentration, obtained from inhibition or displacement. As usually defined, the EC50 is the concentration that produces a half-maximal response. The term half-life denotes the time in which the quantity being followed falls by half. A low value points to rapid decline. Broadly, the clearance is the rate of elimination divided by the concentration. Lower therefore signals a low capacity for elimination. By bioavailability is commonly meant the share of a dose that reaches the circulation, judged against a reference dose that is usually intravenous. Lower therefore signals little systemic uptake.

T1 sequence (P34972 whole entry): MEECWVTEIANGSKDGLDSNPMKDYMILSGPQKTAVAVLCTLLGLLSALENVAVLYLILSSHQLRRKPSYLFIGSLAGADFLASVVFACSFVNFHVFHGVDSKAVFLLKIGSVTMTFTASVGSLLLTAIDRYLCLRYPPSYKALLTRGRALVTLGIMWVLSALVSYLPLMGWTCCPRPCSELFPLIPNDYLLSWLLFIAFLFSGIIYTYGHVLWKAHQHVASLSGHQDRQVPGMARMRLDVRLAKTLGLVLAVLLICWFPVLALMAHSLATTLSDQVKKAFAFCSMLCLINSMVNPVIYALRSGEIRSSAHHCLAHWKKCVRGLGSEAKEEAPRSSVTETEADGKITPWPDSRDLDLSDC
T3 sequence (P20272 whole entry): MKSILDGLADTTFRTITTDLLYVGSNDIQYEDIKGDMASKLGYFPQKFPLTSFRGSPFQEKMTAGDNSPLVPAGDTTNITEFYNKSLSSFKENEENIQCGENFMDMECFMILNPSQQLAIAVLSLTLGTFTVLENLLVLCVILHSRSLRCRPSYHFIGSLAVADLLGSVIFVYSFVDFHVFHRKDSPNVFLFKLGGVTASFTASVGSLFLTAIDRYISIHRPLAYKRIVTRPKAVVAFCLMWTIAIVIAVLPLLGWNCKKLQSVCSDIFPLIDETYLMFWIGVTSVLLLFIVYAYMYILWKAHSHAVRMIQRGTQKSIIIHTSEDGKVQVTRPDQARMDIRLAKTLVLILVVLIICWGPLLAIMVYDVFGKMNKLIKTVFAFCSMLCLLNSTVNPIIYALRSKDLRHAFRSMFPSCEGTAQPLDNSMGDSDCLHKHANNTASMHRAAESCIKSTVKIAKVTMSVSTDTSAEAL

For the compound `CN1CCC[C@H]1COc1ccc(C(F)(F)F)cc1C(=O)/N=C1\SC(C)(C)CN1C[C@H]1CCCO1` [Example 33, N-{(2Z)-5,5-dimethyl-3-[(2R)-tetrahydrofuran-2-ylmethyl]-1,3-thiazolidin-2-ylidene}-2-{[(2S)-1-methylpyrrolidin-2-yl]methoxy}-5-(trifluoromethyl)benzamide], the Ki was 23 nM in series [1] (human CB2 (Ki, nM)) and 20 nM in series [2] (rat CB2 (Ki, nM)). The EC50 in series [3] worked out at 0.09 nM; in series [4] (Rat CB1 cyclase (EC50, nM)) it was 5380 nM.

For the compound `CCCCn1nc(C(C)(C)C)s/c1=N\C(=O)c1cc(C(F)(F)F)ccc1OCC1CCCCN1C` (centres unmarked) [Example 7, N-[(2Z)-3-butyl-5-tert-butyl-1,3,4-thiadiazol-2(3H)-ylidene]-2-[(1-methylpiperidin-2-yl)methoxy]-5-(trifluoromethyl)benzamide], the inhibitory constant (Ki) in series [1] (human CB2 (Ki, nM)) was 2.5 nM; in series [2] (rat CB2 (Ki, nM)), 2.5 nM. The EC50 in series [3] came out at 2.9 nM; in series [4] (Rat CB1 cyclase (EC50, nM)) it was 1060 nM.

Turning to `Cn1c(C(C)(C)C)c/c(=N\C(=O)c2cc(C(F)(F)F)ccc2OCCN2CCCC2=O)n1C[C@H]1CCCO1` [Example 15], the inhibitory constant (Ki) is 193 nM in series [1] (human CB2 (Ki, nM)) and 203 nM in series [2] (rat CB2 (Ki, nM)). Also, the EC50 in series [3] was 1.4 nM; in series [4] (Rat CB1 cyclase (EC50, nM)), greater than 27000 nM.

As to `Cn1c(C(C)(C)C)c/c(=N\C(=O)c2cc(C(F)(F)F)ccc2NC[C@H]2CCCO2)n1C[C@H]1CCCO1` [Example 23, N-{(3E)-5-tert-butyl-1-methyl-2-[(2R)-tetrahydrofuran-2-ylmethyl]-1,2-dihydro-3H-pyrazol-3-ylidene}-2-{[(2R)-tetrahydrofuran-2-ylmethyl]amino}-5-(trifluoromethyl)benzamide], the inhibition constant Ki in series [1] (human CB2 (Ki, nM)) was found to be 4.7 nM; in series [2] (rat CB2 (Ki, nM)) it was 2.8 nM. Besides, the concentration giving a half-maximal response (EC50) in series [3] was determined as 0.37 nM; in series [4] (Rat CB1 cyclase (EC50, nM)), 3420 nM.

Consider `Cn1c(C(C)(C)C)c/c(=N\C(=O)c2cc(C(F)(F)F)ccc2OC[C@@H]2COC(C)(C)O2)n1C[C@H]1CCCO1` [Example 16, N-{(3E)-5-tert-butyl-1-methyl-2-[(2R)-tetrahydrofuran-2-ylmethyl]-1,2-dihydro-3H-pyrazol-3-ylidene}-2-{[(4R)-2,2-dimethyl-1,3-dioxolan-4-yl]methoxy}-5-(trifluoromethyl)benzamide], for which the Ki in series [1] (human CB2 (Ki, nM)) stood at 40 nM; in series [2] (rat CB2 (Ki, nM)), 23 nM. For the same compound, the EC50 in series [3] is 0.47 nM; in series [4] (Rat CB1 cyclase (EC50, nM)), greater than 27000 nM.

In series [1] (human CB2 (Ki, nM)), `CCCCCn1/c(=N/C(=O)c2cc(C#N)ccc2OCC(C)(C)O)cc(C(C)(C)C)n1C` [Example 115, N-[(3E)-5-tert-butyl-1-methyl-2-pentyl-1,2-dihydro-3H-pyrazol-3-ylidene]-5-cyano-2-(2-hydroxy-2-methylpropoxy)benzamide] returned a Ki of 81 nM. Besides, the Ki in series [2] (rat CB2 (Ki, nM)) amounted to 17 nM. Further, the EC50 in series [4] (setting [6]) was greater than 27000 nM. In series [5], this compound gave a half-life of 0.6 h, a clearance of 30 mL/min/kg and a bioavailability of 7%.

As for `CN1CCC[C@H]1COc1ccc(C(F)(F)F)cc1C(=O)/N=c1\sc(C(C)(C)C)nn1C[C@H]1CCCO1` [Example 69, N-[(2Z)-5-tert-butyl-3-[(2R)-tetrahydrofuran-2-ylmethyl]-1,3,4-thiadiazol-2(3 H)-ylidene]-2-{[(2S)-1-methylpyrrolidin-2-yl]methoxy}-5-(trifluoromethyl)benzamide], the Ki in series [1] (human CB2 (Ki, nM)) is 10 nM and 14 nM; in series [2] (rat CB2 (Ki, nM)), 19 nM and 5 nM. The concentration for a half-maximal effect (EC50) in series [3] was 0.93 nM and 0.16 nM.

`CCCCn1cc(C(C)(C)C)o/c1=N\C(=O)c1cc(C(F)(F)F)ccc1OC[C@@H]1CCCN1C` [Example 76, N-[(2Z)-3-butyl-5-tert-butyl-1,3-oxazol-2(3H)-ylidene]-2-{[(2S)-1-methylpyrrolidin-2-yl]methoxy}-5-(trifluoromethyl)benzamide]: the Ki stood at 176 nM in series [1] (read-out: human CB2 (Ki)) and 243 nM in series [2] (read-out: rat CB2 (Ki)). Moreover, the EC50 in series [4] (setting [6]) amounted to 2030 nM.

Regarding `C[C@@H](O)COc1ccc(C(F)(F)F)cc1C(=O)/N=c1\cc(C(C)(C)C)n(C)n1C[C@H]1CCCO1` [Example 91, N-{(3E)-5-tert-butyl-1-methyl-2-[(2R)-tetrahydrofuran-2-ylmethyl]-1,2-dihydro-3 H-pyrazol-3-ylidene}-2-{[(2R)-2-hydroxypropyl]oxy}-5-(trifluoromethyl)benzamide], in series [1] (human CB2 (Ki, nM)), the affinity, expressed as Ki, was 38 nM. The same compound showed an inhibition constant (Ki) in series [2] (rat CB2 (Ki, nM)) of 18 nM. The EC50 in series [4] (setting [6]) was greater than 27000 nM. In series [5], the half-life is 2.5 h, the clearance is 31.7 mL/min/kg and the bioavailability came to 33%.

Take `Cn1c(C(C)(C)C)c/c(=N\C(=O)c2cc(C#N)ccc2OCC(C)(C)O)n1CC1CCC1` [Example 113, N-[(3E)-5-tert-butyl-2-(cyclobutylmethyl)-1-methyl-1,2-dihydro-3H-pyrazol-3-ylidene]-5-cyano-2-(2-hydroxy-2-methylpropoxy)benzamide]: the Ki in series [1] (human CB2 (Ki, nM)) amounted to 54 nM. The same compound came in with a Ki in series [2] (rat CB2 (Ki, nM)) of 28 nM. For the same compound, in series [4] (setting [6]), the concentration for a half-maximal effect (EC50) was greater than 27000 nM. In series [5], the half-life is 3.4 h, the clearance was 20 mL/min/kg and the bioavailability came to 100%.

Consider `Cn1c(C(C)(C)C)c/c(=N\C(=O)c2cc([N+](=O)[O-])ccc2OCC(C)(C)O)n1C[C@H]1CCCO1` [Example 121, N-{(3E)-5-tert-butyl-1-methyl-2-[(2R)-tetrahydrofuran-2-ylmethyl]-1,2-dihydro-3H-pyrazol-3-ylidene}-2-(2-hydroxy-2-methylpropoxy)-5-nitrobenzamide], for which the inhibition constant (Ki) in series [1] (human CB2 (Ki, nM)) is 13 nM; in series [2] (rat CB2 (Ki, nM)), 7.7 nM. The EC50 in series [4] (setting [6]) was 4710 nM.

In turn, `Cn1c(C(C)(C)C)c/c(=N\C(=O)c2cc(C(F)(F)F)ccc2OCC(C)(C)O)n1CC1CC1` [Example 71, N-[(3E)-5-tert-butyl-2-(cyclopropylmethyl)-1-methyl-1,2-dihydro-3H-pyrazol-3-ylidene]-2-(2-hydroxy-2-methylpropoxy)-5-(trifluoromethyl)benzamide] registered a Ki in series [1] (human CB2 (Ki, nM)) of 38 nM. Moreover, in series [2] (rat CB2 (Ki, nM)), the Ki is 8.5 nM. Also, the EC50 in series [4] (Rat CB1 cyclase (EC50, nM)) turned out to be 4280 nM. For the same compound, in series [5], the half-life is 4.7 h, the clearance was 5 mL/min/kg and the bioavailability came to 46%.

Take `Cn1c(C(C)(C)C)c/c(=N\C(=O)c2cc(C(F)(F)F)ccc2OC[C@@H]2CCC(=O)N2)n1CC1CCC1` [Example 120, N-[(3E)-5-tert-butyl-2-(cyclobutylmethyl)-1-methyl-1,2-dihydro-3H-pyrazol-3-ylidene]-2-{[(2S)-5-oxopyrrolidin-2-yl]methoxy}-5-(trifluoromethyl)benzamide]: the Ki came to 116 nM in series [1] (read-out: human CB2 (Ki)) and 61 nM in series [2] (rat CB2 (Ki, nM)). Further, the EC50 in series [4] (setting [6]) was greater than 27000 nM.

For the compound `Cn1c(C(C)(C)C)c/c(=N\C(=O)c2cc(C(F)(F)F)ccc2OCC(C)(C)C(=O)O)n1C[C@H]1CCCO1` [Example 124, 3-[2-[({(3E)-5-tert-butyl-1-methyl-2-[(2R)-tetrahydrofuran-2-ylmethyl]-1,2-dihydro-3H-pyrazol-3-ylidene}amino)carbonyl]-4-(trifluoromethyl)phenoxy]-2,2-dimethylpropanoic acid], the Ki in series [1] (read-out: human CB2 (Ki)) came to 185 nM; in series [2] (rat CB2 (Ki, nM)), 43 nM. For the same compound, the EC50 in series [4] (setting [6]) is greater than 27000 nM.
